From patent US20150276740A1, “METHOD FOR D[…] ACTIVITY” (SYSMEX CORPORATION, priority 2014, published 2015)

Columns and labels:
[1] = target: T1, CDK1 (Homo sapiens, UniProt P06493); experiment: Determination of CDK1 kinase activity using chemical luminescence with the ATP derivative as phosphate-group donor (S/N evaluation); format: biochemical; settings: CDK1 immunoprecipitated from K562 solubilized sample; biotinylated CDK2 substrate peptide; anti-DNP antibody detection; compared to the S/N ratio of Comparative Example 1 (ATPγS as phosphate-group donor)
T1 construct: a reaction was caused to occur between CDK1 and the anti-CDK1 antibody; endogenous in cells; host or cells: K562 cells (lysate, immunoprecipitated with anti-CDK1 antibody from Operon on protein A Sepharose beads)
Experimental: In a well of a 96-well filter plate (hydrophilic PVDF membrane manufactured by Millipore Corp.), 70 μL of an immunoprecipitation buffer (a buffer containing 0.1 mass % Nonidet NP-40 and 50 mM tris hydrochloride (pH7.4)) was added. Then, with respect to the immunoprecipitation buffer in the well, 20 μL of an antibody solution containing 16 μg of an anti-CDK1 antibody (manufactured by Operon Co., ltd.), and 30 μL of 20 v/v % Sepharose beads (manufactured by GE Healthcare) coated with protein A were added. […]
Next, with respect to the beads that had been cleaned, 50 μL of the CDK substrate solution (composition: 100 ng/μL biotinylated CDK2 substrate peptide (manufactured by Enzo Inc.), the compound 2 represented by formula (x2), 54 mM tris hydrochloride (pH7.4), and 20 mM magnesium chloride) was added to obtain a mixture. The concentration of the compound 2 was a concentration that provided an absorbance of 2 at 362 nm. This absorbance was measured in a manner similar to that in Example 1 (2). […]

[2] = test system: biotinylated CDK2 substrate peptide (Biotin-Ahx-His-His-Ala-Ser-Pro-Arg-Lys)

T1 sequence (P06493 whole entry): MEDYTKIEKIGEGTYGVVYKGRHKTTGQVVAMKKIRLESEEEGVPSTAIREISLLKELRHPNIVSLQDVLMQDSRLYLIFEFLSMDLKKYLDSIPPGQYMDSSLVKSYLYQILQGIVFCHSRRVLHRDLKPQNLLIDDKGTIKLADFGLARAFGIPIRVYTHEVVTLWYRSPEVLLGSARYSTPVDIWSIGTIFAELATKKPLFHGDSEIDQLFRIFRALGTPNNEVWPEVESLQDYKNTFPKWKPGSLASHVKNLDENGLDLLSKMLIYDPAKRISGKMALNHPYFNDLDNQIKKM
T1 sequence (P14635 whole entry partner): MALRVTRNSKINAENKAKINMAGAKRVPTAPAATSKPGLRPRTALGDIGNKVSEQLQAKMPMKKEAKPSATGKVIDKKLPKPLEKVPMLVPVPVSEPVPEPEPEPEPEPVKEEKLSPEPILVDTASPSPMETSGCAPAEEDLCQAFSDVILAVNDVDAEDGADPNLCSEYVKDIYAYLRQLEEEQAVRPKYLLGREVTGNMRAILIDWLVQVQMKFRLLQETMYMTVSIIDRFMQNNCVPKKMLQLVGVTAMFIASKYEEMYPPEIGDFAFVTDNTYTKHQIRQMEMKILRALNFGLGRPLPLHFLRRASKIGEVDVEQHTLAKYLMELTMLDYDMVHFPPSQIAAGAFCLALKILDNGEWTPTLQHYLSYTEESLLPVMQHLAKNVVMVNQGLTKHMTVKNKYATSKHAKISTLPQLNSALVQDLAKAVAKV

Molecule | S/N ratio (luminescence intensity A1/luminescence intensity B) [1] | specific luminescence intensity based on CDK2 activity (ATPγDNP transphosphorylation, ALP labeled anti-DNP antibody, chemiluminescence) [2]
Nc1ncnc2c1ncn2C1OC(COP(=O)(O)OP(=O)(O)OP(=O)(O)SC2CC(=O)N(CCC(=O)NCCOCCOCCCNC(CCCCNc3ccc([N+](=O)[O-])cc3[N+](=O)[O-])C(=O)O)C2=O)C(O)C1O (centres unmarked) [compound 4] | tended to be high | –
cyclin-dependent kinase (CDK) 2 | – | the specific luminescence intensity based on CDK2 activity increases in association with an increase in the CDK2 concentration (increase in the solubilized sample concentration)
